Structures can show the parent of a compound that is named as a salt. Where two headings read alike, the source gives them in different places.
How the values were obtained:
[1] = molecular target: T1, recombinant guanylate cyclase reporter cell line (Rattus norvegicus, UniProt P19686+P20595); experiment: Action on recombinant guanylate cyclase reporter cell line; format: cell-based; details: in some cases mean values from individual determinations
T1 construct: expressed in transfected cells; host or cells: recombinant reporter cell line
T1 sequence (P19686 1-690): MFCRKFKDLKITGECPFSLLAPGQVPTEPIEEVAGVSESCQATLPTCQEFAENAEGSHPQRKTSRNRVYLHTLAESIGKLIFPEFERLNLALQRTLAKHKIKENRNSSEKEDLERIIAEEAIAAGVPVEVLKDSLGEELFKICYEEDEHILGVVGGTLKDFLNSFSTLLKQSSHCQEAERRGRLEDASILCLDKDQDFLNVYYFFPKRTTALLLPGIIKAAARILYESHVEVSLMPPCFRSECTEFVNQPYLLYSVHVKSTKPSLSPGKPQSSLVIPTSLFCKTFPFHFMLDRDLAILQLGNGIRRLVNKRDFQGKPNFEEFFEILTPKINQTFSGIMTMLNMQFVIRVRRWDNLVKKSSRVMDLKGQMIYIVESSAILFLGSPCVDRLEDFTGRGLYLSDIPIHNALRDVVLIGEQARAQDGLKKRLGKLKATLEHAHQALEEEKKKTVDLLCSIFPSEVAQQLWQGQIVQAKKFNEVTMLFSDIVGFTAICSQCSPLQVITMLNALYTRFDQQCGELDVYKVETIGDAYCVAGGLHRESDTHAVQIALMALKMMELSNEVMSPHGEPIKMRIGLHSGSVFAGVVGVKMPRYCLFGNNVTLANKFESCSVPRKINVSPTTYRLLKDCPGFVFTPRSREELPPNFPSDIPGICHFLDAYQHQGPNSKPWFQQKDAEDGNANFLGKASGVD
T1 sequence (P20595 1-619): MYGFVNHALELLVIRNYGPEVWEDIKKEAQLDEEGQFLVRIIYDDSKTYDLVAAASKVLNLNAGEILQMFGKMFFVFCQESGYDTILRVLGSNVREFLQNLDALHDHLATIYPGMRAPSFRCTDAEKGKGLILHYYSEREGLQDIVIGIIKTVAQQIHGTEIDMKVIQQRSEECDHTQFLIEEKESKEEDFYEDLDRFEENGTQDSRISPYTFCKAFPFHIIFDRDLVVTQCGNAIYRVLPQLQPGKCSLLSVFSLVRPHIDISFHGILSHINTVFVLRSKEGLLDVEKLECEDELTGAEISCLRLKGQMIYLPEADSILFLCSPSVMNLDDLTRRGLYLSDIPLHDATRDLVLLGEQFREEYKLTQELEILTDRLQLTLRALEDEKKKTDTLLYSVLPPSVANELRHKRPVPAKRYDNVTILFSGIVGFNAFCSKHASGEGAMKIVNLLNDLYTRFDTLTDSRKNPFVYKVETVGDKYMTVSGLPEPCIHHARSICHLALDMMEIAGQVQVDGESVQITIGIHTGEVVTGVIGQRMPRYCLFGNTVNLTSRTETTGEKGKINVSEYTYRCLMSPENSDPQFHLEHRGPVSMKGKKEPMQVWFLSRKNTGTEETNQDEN
In short: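 Each compound is applied to a cell line engineered with a reporter for recombinant guanylate cyclase. The minimal effective concentration is then noted, in part as a mean across separate determinations.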

[2] = Determination of pharmacokinetic parameters following intravenous and oral administration (rats); format: in vivo, male Wistar rats; details: intravenous administration in rats
Method: B-6. Determination of Pharmacokinetic Parameters Following Intravenous and Oral Administration
The pharmacokinetic parameters of the compounds according to the invention are determined in male CD-1 mice, male Wistar rats and female beagles. Intravenous administration in the case of mice and rats is carried out by means of a species-specific plasma/DMSO formulation, and in the case of dogs by means of a water/PEG400/ethanol formulation. In all species, oral administration of the dissolved substance is performed via gavage, based on a water/PEG400/ethanol formulation. The taking of blood from rats is simplified by inserting a silicone catheter into the right Vena jugularis externa prior to substance administration. The operation is carried out at least one day prior to the experiment with […] and administration of an analgesic (atropin/Rimadyl (3/1) 0.1 ml s.c.). The blood is taken (generally more than 10 time points) within a time window including terminal time points of at least 24 to a maximum of 72 hours after substance administration. When the blood is taken, it is passed into heparinised tubes. Then the blood plasma is obtained by centrifugation and is optionally stored at −20° C. until further processing.
An internal standard (which may also be a chemically unrelated substance) is added to the samples of the compounds according to the invention, calibration samples and qualifiers, and there follows protein precipitation by means of excess acetone. Addition of a buffer solution matched to the LC conditions, and subsequent vortexing, is followed by centrifugation at 1000 g. The supernatant is analysed by LC-MS/MS using C18 reversed-phase columns and variable mobile phase mixtures. The substances are quantified via the peak heights or areas from extracted ion chromatograms of specific selected ion monitoring experiments.
The plasma concentration/time plots determined are used to calculate the pharmacokinetic parameters such as AUC, Cmax, t1/2 (terminal half life), F (bioavailability), MRT (mean residence time) and CL (clearance), using a validated pharmacokinetic calculation program.
Since the substance quantification is carried out in plasma, it is necessary to determine the blood/plasma distribution of the substance in order to be able to adjust the pharmacokinetic parameters correspondingly. For this purpose, a defined amount of substance is incubated in heparinized whole blood of the species in question in a rocking roller mixture for 20 min. After centrifugation at 1000 g, the plasma concentration is measured (by means of LC-MS/MS; see above) and determined by calculating the ratio of the Cblood/Cplasma value.

[3] = male, Wistar, rat, plasma, iv, read-out: MRT

Compound	MEC (minimal effective concentration) [1] [µM]	AUCnorm [2] [kg·h/L]	CLblood [2] [mL/min/kg]	half-life ([2]; male, Wistar, rat, plasma, iv) [h]	MRT [2, 3] [h]	MRT [2] [h]	t1/2 [2] [h]
Cc1nc2c(OCc3c(F)cccc3F)cc(C(F)F)cn2c1C(=O)NCC(C)(N)CF (single isomer, unassigned; enantiomer a) [Example 291, ent-N-(2-amino-3-fluoro-2-methylpropyl)-8-[(2,6-difluorobenzyl)oxy]-6-(difluoromethyl)-2-methylimidazo[1,2-a]pyridine-3-carboxamide (Enantiomer A)]	1.0	0.87	14	4.8	5.7		
Cc1cc(OCc2c(F)ccc(F)c2F)c2nc(C)c(C(=O)NCC(C)(N)CF)n2c1 (single isomer, unassigned; enantiomer b) [Example 286, ent-N-(2-amino-3-fluoro-2-methylpropyl)-2,6-dimethyl-8-[(2,3,6-trifluorobenzyl)oxy]imidazo[1,2-a]pyridine-3-carboxamide (Enantiomer B)]	0.1	0.82	23.2			4.5	3.8
CCCC(C)(N)CNC(=O)c1c(C)nc2c(OCc3cccc(F)c3F)cc(C)cn12 (racemic) [Example 303, rac-N-(2-amino-2-methylpentyl)-8-[(2,3-difluorobenzyl)oxy]-2,6-dimethylimidazo[1,2-a]pyridine-3-carboxamide]	0.20	0.26	45.7	5.7	8.2		
Cc1cc(OCc2c(F)cccc2F)c2nc(C)c(C(=O)NCC(C)(N)CCC(F)(F)F)n2c1 (single isomer, unassigned) [Example 408, ent-N-(2-amino-5,5,5-trifluoro-2-methylpentyl)-8-[(2,6-difluorobenzyl)oxy]-2,6-dimethylimidazo[1,2-a]pyridine-3-carboxamide]	0.10	0.19	51.2	3.8	4.7		
Cc1cc(OCc2c(F)ccc(F)c2F)c2nc(C)c(C(=O)NCC(C)(N)CCC(F)(F)F)n2c1 (single isomer, unassigned) [Example 411, ent-N-(2-amino-5,5,5-trifluoro-2-methylpentyl)-2,6-dimethyl-8-[(2,3,6-trifluorobenzyl)oxy]imidazo[1,2-a]pyridine-3-carboxamide]	0.03	0.41	25.3			11.2	8.2
Cc1cc(OCc2c(F)cccc2F)c2nc(C)c(C(=O)NCC(C)(N)CF)n2c1 (single isomer, unassigned; enantiomer a) [Example 283, ent-N-(2-amino-3-fluoro-2-methylpropyl)-8-[(2,6-difluorobenzyl)oxy]-2,6-dimethylimidazo[1,2-a]pyridine-3-carboxamide (Enantiomer A)]	0.3	0.67	14.5	3.1	3.9		
Cc1nc2c(OCc3c(F)cccc3F)cc(Cl)cn2c1C(=O)NCC(C)(C)N [Example 73, N-(2-Amino-2-methylpropyl)-6-chloro-8-[(2,6-difluorobenzyl)oxy]-2-methylimidazo[1,2-a]-pyridine-3-carboxamide]	0.30	1.55	8.5	8.6	11.8		
C#Cc1cc(OCc2c(F)cccc2F)c2nc(C)c(C(=O)NCC(C)(N)CCC)n2c1 (stereo not drawn) [Example 356, ent-N-(2-amino-2-methylpentyl)-8-[(2,6-difluorobenzyl)oxy]-6-ethynyl-2-methylimidazo[1,2-a]pyridine-3-carboxamide]	0.10	0.61	16.3	10.3	13.9		
Cc1cc(OCc2c(F)ccc(F)c2F)c2nc(C)c(C(=O)NCC(C)(C)N)n2c1 [Example 276, N-(2-Amino-2-methylpropyl)-2,6-dimethyl-8-[(2,3,6-trifluorobenzyl)oxy]imidazo[1,2-a]pyridine-3-carboxamide]	0.10	0.70	21.2	2.9	4.5		
Cc1cc(OCc2c(F)ccc(F)c2F)c2nc(C)c(C(=O)NCC(C)(N)CF)n2c1 (single isomer, unassigned; enantiomer a) [Example 285, ent-N-(2-amino-3-fluoro-2-methylpropyl)-2,6-dimethyl-8-[(2,3,6-trifluorobenzyl)oxy]imidazo[1,2-a]pyridine-3-carboxamide (Enantiomer A)]	0.3	0.54	17	3.6	4.4		
CCCC(C)(N)CNC(=O)c1c(C)nc2c(OCc3c(F)cccc3F)cc(C(F)F)cn12 (single isomer, unassigned; enantiomer b) [Example 289, ent-N-(2-amino-2-methylpentyl)-8-[(2,6-difluorobenzyl)oxy]-6-(difluoromethyl)-2-methyl-imidazo[1,2-a]pyridine-3-carboxamide Formate (Enantiomer B)]	0.3	0.38	41.8	4.4	6.8		
Cc1cc(OCc2c(F)cccc2F)c2nc(C)c(C(=O)NC[C@H]3CCCCN3)n2c1 [Example 173, 8-[(2,6-Difluorobenzyl)oxy]-2,6-dimethyl-N-[(2R)-piperidin-2-ylmethyl]imidazo[1,2-a]pyridine-3-carboxamide]	0.30	0.54	28	3.3	3.9		
Cc1nc2c(OCc3c(F)cccc3F)cc(Cl)cn2c1C(=O)NCC1(N)CCC1 [Example 155, N-[(1-aminocyclobutyl)methyl]-6-chloro-8-[(2,6-difluorobenzyl)oxy]-2-methylimidazo[1,2-a]-pyridine-3-carboxamide trifluoroacetate]	0.30	0.97	21.2	7.7	11.2		

Reference: patent US20150274719A1, “AMINO-SUBSTITUTED IMIDAZO[1,2-A]PYRIDINECARBOXAMIDES AND THEIR USE” (BAYER PHARMA AKTIENGESELLSCHAFT, priority 2012, published 2015)
